25 molecules from patent publication US9034921B2, “Diphenylmethane derivatives as SGLT2 inhibitors” (GREEN CROSS CORPORATION, priority 2011, dated 2015) can be followed below.

The assay has as its target human SGLT2 (Homo sapiens (Human), UniProt P31639). Kind of assay: Inhibitory effects on human SGLT2 activities (14C-AMG uptake, sodium-dependent glucose transport assay). The assay is classed as cell-based. The following applies: CHO cells stably expressing hSGLT2, 37° C., 2 h, single determinations. An excerpt:
Test 1: Cloning and Cell Line Construction for Human SGLT2
Human SGLT2 (hSGLT2) gene was amplified by PCR from cDNA-Human Adult Normal Tissue Kidney (Invitrogen). The hSGLT2 sequence was cloned into pcDNA3.1(+) for mammalian expression and stably transfected into chinese hamster ovary (CHO) cells. SGLT2-expressing clones were selected based on resistance to G418 antibiotic (Geneticin) and activity in the ^14C-α-methyl-D-glucopyranoside (^14C-AMG) uptake assay.
Test 2: Inhibitory Effects on Human SGLT2 Activities
For sodium-dependent glucose transport assay, cells expressing hSGLT2 were seeded into a 96-well culture plate at a density of 5×10^4 cells/well in RPMI medium 1640 containing 10% fetal bovine serum. The cells were used 1 day after plating. They were incubated in pretreatment buffer (10 mM HEPES, 5 mM Tris, 140 mM choline chloride, 2 mM KCl, 1 mM CaCl2, and 1 mM MgCl2, pH 7.4) at 37° C. for 10 min. They were then incubated in uptake buffer (10 mM HEPES, 5 mM Tris, 140 mM NaCl, 2 mM KCl, 1 mM CaCl2, 1 mM MgCl2, and 1 mM ^14C-nonlabeled AMG pH 7.4) containing ^14C-labeled AMG (8 μM) and the inventive compound or dimethyl sulfoxide (DMSO) vehicle at 37° C. for 2 h. Cells were washed twice with washing buffer (pretreatment buffer containing 10 mM AMG at room temperature) and then the radioactivity was measured using a liquid scintillation counter. IC50 was determined by nonlinear regression analysis using GraphPad PRISM [Katsuno, K. et al. J. Pharmacol. Exp. Ther. 2007, 320, 323-330; Han, S. et al. Diabetes, 2008, 57, 1723-1729].

The structures appear in SMILES notation.

human SGLT2, sequence (P31639 whole entry): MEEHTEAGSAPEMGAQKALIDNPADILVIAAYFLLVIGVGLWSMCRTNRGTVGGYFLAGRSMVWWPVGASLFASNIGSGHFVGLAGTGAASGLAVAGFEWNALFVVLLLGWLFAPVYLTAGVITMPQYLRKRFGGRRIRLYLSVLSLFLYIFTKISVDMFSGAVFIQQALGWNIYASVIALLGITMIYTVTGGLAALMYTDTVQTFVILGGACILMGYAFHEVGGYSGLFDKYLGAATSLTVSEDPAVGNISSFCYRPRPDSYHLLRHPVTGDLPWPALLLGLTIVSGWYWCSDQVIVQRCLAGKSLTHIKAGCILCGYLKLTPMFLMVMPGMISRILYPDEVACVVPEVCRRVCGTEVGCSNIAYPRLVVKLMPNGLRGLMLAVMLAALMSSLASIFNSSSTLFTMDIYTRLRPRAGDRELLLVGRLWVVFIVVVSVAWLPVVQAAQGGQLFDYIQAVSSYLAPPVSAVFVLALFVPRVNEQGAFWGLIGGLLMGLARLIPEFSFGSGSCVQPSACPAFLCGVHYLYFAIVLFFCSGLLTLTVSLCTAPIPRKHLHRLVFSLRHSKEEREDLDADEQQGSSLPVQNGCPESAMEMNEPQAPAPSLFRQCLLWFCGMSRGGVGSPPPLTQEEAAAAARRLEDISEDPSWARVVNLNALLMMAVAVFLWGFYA

A word on the IC50: it is the midpoint of a concentration-inhibition curve. `COc1ccc(Cc2cc([C@@H]3O[C@H](CO)[C@@H](O)[C@H](O)[C@H]3O)c3c(c2Br)CCC3)cc1` [Example E001, (2S,3R,4R,5S,6R)-2-(7-Bromo-6-(4-methoxybenzyl)-2,3-dihydro-1H-inden-4-yl)-6-(hydroxymethyl)tetrahydro-2H-pyran-3,4,5-triol]: the 50% inhibitory concentration (IC50) is 1.15 nM.
The figure for `CCOc1ccc(Cc2cc3c(c([C@@H]4O[C@H](CO)[C@@H](O)[C@H](O)[C@H]4O)c2)CCC3)cc1` [Example E002, (2S,3R,4R,5S,6R)-2-(6-(4-Ethoxybenzyl)-2,3-dihydro-1H-inden-4-yl)-6-(hydroxymethyl)tetrahydro-2H-pyran-3,4,5-triol] is 9 nM; for `CCOc1ccc(Cc2cc([C@@H]3O[C@H](CO)[C@@H](O)[C@H](O)[C@H]3O)c3c(c2Br)CCC3)cc1` [Example E003, (2S,3R,4R,5S,6R)-2-(7-Bromo-6-(4-ethoxybenzyl)-2,3-dihydro-1H-inden-4-yl)-6-(hydroxymethyl)tetrahydro-2H-pyran-3,4,5-triol] it is 0.738 nM.
In the case of `CCc1ccc(Cc2cc([C@@H]3O[C@H](CO)[C@@H](O)[C@H](O)[C@H]3O)c3c(c2Br)CCC3)cc1` [Example E004, (2S,3R,4R,5S,6R)-2-(7-Bromo-6-(4-ethylbenzyl)-2,3-dihydro-1H-inden-4-yl)-6-(hydroxymethyl)tetrahydro-2H-pyran-3,4,5-triol] it was 0.661 nM; in that of `COc1ccc(Cc2cc([C@@H]3O[C@H](CO)[C@@H](O)[C@H](O)[C@H]3O)c3c(c2Cl)CCC3)cc1` [Example E005, (2S,3R,4R,5S,6R)-2-(7-Chloro-6-(4-methoxybenzyl)-2,3-dihydro-1H-inden-4-yl)-6-(hydroxymethyl)tetrahydro-2H-pyran-3,4,5-triol], 0.681 nM.
The figure for `COc1ccc(Cc2cc([C@@H]3O[C@H](CO)[C@@H](O)[C@H](O)[C@H]3O)c3c(c2F)CCC3)cc1` [Example E006, (2S,3R,4R,5S,6R)-2-(7-Fluoro-6-(4-methoxybenzyl)-2,3-dihydro-1H-inden-4-yl)-6-(hydroxymethyl)tetrahydro-2H-pyran-3,4,5-triol] is 2.03 nM; for `COc1ccc(Cc2cc([C@@H]3O[C@H](CO)[C@@H](O)[C@H](O)[C@H]3O)c3c(c2C)CCC3)cc1` [Example E007, (2R,3S,4R,5R,6S)-2-(Hydroxymethyl)-6-(6-(4-methoxybenzyl)-7-methyl-2,3-dihydro-1H-inden-4-yl)tetrahydro-2H-pyran-3,4,5-triol] it is 0.793 nM.
`CCOc1ccc(Cc2cc([C@@H]3O[C@H](CO)[C@@H](O)[C@H](O)[C@H]3O)c3c(c2Cl)CCC3)cc1` [Example E008, (2S,3R,4R,5S,6R)-2-(7-Chloro-6-(4-ethoxybenzyl)-2,3-dihydro-1H-inden-4-yl)-6-(hydroxymethyl)tetrahydro-2H-pyran-3,4,5-triol] gave an IC50 of 0.551 nM.
In the case of `CCc1ccc(Cc2cc([C@@H]3O[C@H](CO)[C@@H](O)[C@H](O)[C@H]3O)c3c(c2Cl)CCO3)cc1` [Example E010, (2S,3R,4R,5S,6R)-2-(4-Chloro-5-(4-ethylbenzyl)-2,3-dihydrobenzofuran-7-yl)-6-(hydroxymethyl)tetrahydro-2H-pyran-3,4,5-triol] it was 0.884 nM; in that of `CCOc1ccc(Cc2cc([C@@H]3O[C@H](CO)[C@@H](O)[C@H](O)[C@H]3O)c3c(c2Cl)CC(C)O3)cc1` (stereo partly drawn) [Example E011, (2S,3R,4R,5S,6R)-2-(4-Chloro-5-(4-ethoxybenzyl)-2-methyl-2,3-dihydrobenzofuran-7-yl)-6-(hydroxymethyl)tetrahydro-2H-pyran-3,4,5-triol], 1.28 nM.
The figure for `CCOc1ccc(Cc2cc([C@@H]3O[C@H](CO)[C@@H](O)[C@H](O)[C@H]3O)c3c(c2Cl)CCCO3)cc1` [Example E012, (2S,3R,4R,5S,6R)-2-(5-Chloro-6-(4-ethoxybenzyl)chroman-8-yl)-6-(hydroxymethyl)tetrahydro-2H-pyran-3,4,5-triol] is 1.55 nM; for `CCOc1ccc(Cc2cc([C@@H]3O[C@H](CO)[C@@H](O)[C@H](O)[C@H]3O)c3c(c2Cl)OCCO3)cc1` [Example E013, (2S,3R,4R,5S,6R)-2-(8-Chloro-7-(4-ethoxybenzyl)-2,3-dihydrobenzo[b][1,4]dioxin-5-yl)-6-(hydroxymethyl)tetrahydro-2H-pyran-3,4,5-triol] it is 1.27 nM.
As for `COc1ccc(Cc2cc([C@@H]3O[C@H](CO)[C@@H](O)[C@H](O)[C@H]3O)c3c(c2Cl)CCCO3)cc1` [Example E016, (2S,3R,4R,5S,6R)-2-(5-Chloro-6-(4-methoxybenzyl)chroman-8-yl)-6-(hydroxymethyl)tetrahydro-2H-pyran-3,4,5-triol], the half-inhibitory concentration (IC50) was found to be 0.978 nM.
As to `CCc1ccc(Cc2cc([C@@H]3O[C@H](CO)[C@@H](O)[C@H](O)[C@H]3O)c3c(c2Cl)CCCO3)cc1` [Example E017, (2S,3R,4R,5S,6R)-2-(5-Chloro-6-(4-ethylbenzyl)chroman-8-yl)-6-(hydroxymethyl)tetrahydro-2H-pyran-3,4,5-triol], the IC50 worked out at 0.845 nM.
In the case of `COc1ccc(Cc2cc([C@@H]3O[C@H](CO)[C@@H](O)[C@H](O)[C@H]3O)c3c(c2Cl)OCC3)cc1` [Example E019, (2S,3R,4R,5S,6R)-2-(7-Chloro-6-(4-methoxybenzyl)-2,3-dihydrobenzofuran-4-yl)-6-(hydroxymethyl)tetrahydro-2H-pyran-3,4,5-triol] it was 1.53 nM; in that of `CCc1ccc(Cc2cc([C@@H]3O[C@H](CO)[C@@H](O)[C@H](O)[C@H]3O)c3c(c2Cl)OCC3)cc1` [Example E020, (2S,3R,4R,5S,6R)-2-(6-(4-Ethylbenzyl)-7-chloro-2,3-dihydrobenzofuran-4-yl)-6-(hydroxymethyl)-tetrahydro-2H-pyran-3,4,5-triol], 0.715 nM; in that of `COc1ccc(Cc2cc([C@@H]3O[C@H](CO)[C@@H](O)[C@H](O)[C@H]3O)c3c(c2Cl)CCO3)cc1` [Example E021, (2S,3R,4R,5S,6R)-2-(4-Chloro-5-(4-methoxybenzyl)-2,3-dihydrobenzofuran-7-yl)-6-(hydroxymethyl)tetrahydro-2H-pyran-3,4,5-triol], 1.72 nM.
In the case of `CCOc1ccc(Cc2cc([C@@H]3O[C@H](CO)[C@@H](O)[C@H](O)[C@H]3O)c3c(c2Cl)CCO3)cc1` [Example E022, (2S,3R,4R,5S,6R)-2-(4-Chloro-5-(4-ethoxybenzyl)-2,3-dihydrobenzofuran-7-yl)-6-(hydroxymethyl)tetrahydro-2H-pyran-3,4,5-triol] it was 0.833 nM; in that of `CCc1ccc(Cc2cc([C@@H]3O[C@H](CO)[C@@H](O)[C@H](O)[C@H]3O)c3c(c2Cl)OCCC3)cc1` [Example E023, (2S,3R,4R,5S,6R)-2-(8-Chloro-7-(4-ethylbenzyl)chroman-5-yl)-6-(hydroxymethyl)tetrahydro-2H-pyran-3,4,5-triol], 0.753 nM; in that of `CCOc1ccc(Cc2cc([C@@H]3O[C@H](CO)[C@@H](O)[C@H](O)[C@H]3O)c3c(c2Cl)OCC3)cc1` [Example E024, (2S,3R,4R,5S,6R)-2-(7-Chloro-6-(4-ethoxybenzyl)-2,3-dihydrobenzofuran-4-yl)-6-(hydroxymethyl)tetrahydro-2H-pyran-3,4,5-triol], 1.52 nM.
The figure for `OC[C@H]1O[C@@H](c2ccc(Cl)c(Cc3ccc4ncccc4c3)c2)[C@H](O)[C@@H](O)[C@@H]1O` [Example E025, (2S,3R,4R,5S,6R)-2-(4-Chloro-3-(quinolin-6-ylmethyl)phenyl)-6-(hydroxymethyl)tetrahydro-2H-pyran-3,4,5-triol] is 1.85 nM.
The molecule `OC[C@H]1O[C@@H](c2ccc(Cl)c(Cc3ccc4nccnc4c3)c2)[C@H](O)[C@@H](O)[C@@H]1O` [Example E026, (2S,3R,4R,5S,6R)-2-(4-Chloro-3-(quinoxalin-6-ylmethyl)phenyl)-6-(hydroxymethyl)tetrahydro-2H-pyran-3,4,5-triol] yielded an IC50 of 8.63 nM.
`OC[C@H]1O[C@@H](c2ccc(Cl)c(Cc3ccc4c(c3)OCCCO4)c2)[C@H](O)[C@@H](O)[C@@H]1O` [Example E029, (2S,3R,4R,5S,6R)-2-(4-Chloro-3-((3,4-dihydro-2H-benzo[b][1,4]dioxepin-7-yl)methyl)phenyl)-6-(hydroxymethyl)tetrahydro-2H-pyran-3,4,5-triol] had a half-maximal inhibitory concentration (IC50) of 4.38 nM.
Turning to `Cc1ccc([C@@H]2O[C@H](CO)[C@@H](O)[C@H](O)[C@H]2O)cc1Cc1ccc2c(c1)OCCCO2` [Example E030, (2S,3R,4R,5S,6R)-2-(3-((3,4-Dihydro-2H-benzo[b][1,4]dioxepin-7-yl)methyl)-4-methylphenyl)-6-(hydroxymethyl)tetrahydro-2H-pyran-3,4,5-triol], the IC50 came to 9.62 nM.
In the case of `OC[C@H]1O[C@@H](c2ccc(Cl)c(Cc3ccc4sccc4c3)c2)[C@H](O)[C@@H](O)[C@@H]1O` [Example E031, (2S,3R,4R,5S,6R)-2-(3-(Benzo[b]thiophen-5-ylmethyl)-4-chlorophenyl)-6-(hydroxymethyl)tetrahydro-2H-pyran-3,4,5-triol] it was 0.865 nM.
